Measurements: US20180168215A1, “NUTRITIONAL COMPOSITIONS CONTAINING INOSITOL AND USES THEREOF” (Mead Johnson Nutrition Company, priority 2016, published 2018)

Columns and labels:
hippocampal neurons = experiment: PDL-coated bead presynaptic formation, immunostaining for synapsin1, bassoon and β-tubulin III; assay type: cell-based, rat
From the text: Example 1 illustrates that inositol has a does dependent effect on neurotransmission. Due to the continuum of synapse development in vivo, it is difficult to quantitatively assess synapse development. However, in order to provide at time stamp for synapse development, Example 1 is directed to a PDL-coated bead in a culture medium designed to induce synaptic formation. […] By adding the PDL-coated beads to the axonal compartment of the microfluidic compartment, it allows for the visualization of presynaptic terminal development without the overwhelming signal from somata or dendrites. Indeed, this experimental set-up allows for the subjection of distinct compartments to nutrients of interest. The method used herein is described in the reference, Taylor, A. M. et al. “A microfluidic culture platform for CNS axonal injury regeneration and transport.” Nat Methods, 2005. 2(8): p. 599-605, which is incorporated by reference. Briefly, the microfluidic chip contains four chambers, two at the left side and two at the right connected by microgrooves in the center. […] The images were taken and quantified by using confocal microscopy. […] The measurements were quantified and subjected to statistical analysis by two-way ANOVA.

[1] = tested on: Hippocampal cultures from embryonic rats; experiment: Inositol plus DHA, presynaptic Bassoon puncta by quantitative immunostaining; assay type: cell-based, rat; conditions: compared to a DMSO control; FIG. 7
Protocol: Example 5 illustrates synergistic effect of inositol and DHA. FIG. 7 illustrates the effect of inositol in combination with DHA for presynaptic development. Hippocampal cultures from embryonic rats were analyzed by quantitative immunostaining. […] (See FIG. 7).

[2] = tested on: hippocampal cultures from embryonic E18 rats; experiment: Synaptogenesis in embryonic neuronal culture, quantitative immunostaining for Bassoon, Homer and MAP2; assay type: cell-based, rat
From the text: Example 4 illustrates that supplementation with inositol produces strong synaptogenic effects. Nerve cells communicate with each other in the brain through specialized junctions, called synapses. These junctions start to form in the human brain before birth and continue to develop at a rapid rate in the early postnatal period. Changes in this synaptogenic process impair the wiring of the brain and can cause developmental disorders. While effects related to caloric intake and selected nutrients on general brain function have been characterized, limited information exists on the specific roles of nutrients and natural nutrients in synapse formation. Accordingly, Example 4 illustrates the effects of inositol on hippocampal neurons and analyzed them by quantitative immunostaining for synaptic markers. Dissociated neuronal cultures were prepared from rat hippocampus and used in this culture system. It was observed that neurons undergo most rapid synaptogenesis at or by day 14 in vitro (14DIV). By day 21 in vitro (21 DIV), most neurons have become mature and synapse formation occurs at a slower rate. Accordingly, testing at day 14 or 21 in vitro therefore allows for distinguishing nutrient effects at different developmental stages. The neurons were grown in either in standard neurobasal NB medium which contains 40 uM inositol according to the manufacturer; or in 200 μM inositol using custom made medium from LifeTechnology that lacks inositol and that was supplemented with inositol to 200 μM; or without inositol using just the custom made medium from the same manufacturer that lacks inositol. The neurons and synapses were determined by staining Bassoon as a presynaptic active zone marker in green fluorescence, Homer as a postsynaptic marker in red, and MAP2 as a dendrite marker in blue. […] Quantitively, increasing inositol to higher concentrations further promoted its synaptogenic effects (see FIG. 4D) at pre-synaptic sites. The pre-synapses were measured by quantifying the number of bassoon in the puncta per 10 micron dendrite. […] The results were determined by quantitative immunostaining for the presynaptic marker (Bassoon) and the excitatory postsynaptic (Homer). (See. FIG. 4E). Indeed, as shown in FIGS. 4A-4C, hippocampal cultures from embryonic E18 rats grown at the indicated inositol concentrations were analyzed by quantitative immunostaining. FIG. 4A illustrates neurons grown under control conditions and stained for the presynaptic marker Bassoon (in green), the postsynaptic scaffold protein Homer (in red), and the dendritic marker MAP2 (in blue). FIG. 4B illustrates neurons grown with supplemented inositol at 200 μM from 4-14 days in vitro. FIG. 4C illustrates neurons grown without inositol. […] Additionally, FIG. 5 illustrates that treatment with inositol promotes the alignment of pre- and post-synaptic sites. […] Hippocampal cultures from embryonic rats were analyzed by quantitative immunostaining. […] In brief, the presynaptic markers were stained with […] and are shown in green and the post-synaptic markers were stained with homer in and are shown in red. The co-localization of pre- and post-synapse was determined the appearance of a yellow signal, which is produced when green color mixes with red. The quantification was analyzed by using Imag J software and co-localization was calculated by counting the numbers of yellow puncta per […] dendrite. Briefly, hippocampal cultures from embryonic rats were analyzed by quantitative immunostaining. […] The pre-synapse size was determined by the puncta size of bassoon; while the post-synapse size by that of homer. The histochemistry images were analyzed by using Image J software.

rat hippocampal neurons = experiment: FM dye release on electrical field stimulation of neurons in microfluidic devices; assay type: cell-based; conditions: for releasing FM Dye as an indicator of neural transmitter release: 9DIV
From the text: Example 1 illustrates that inositol has a does dependent effect on neurotransmission. Due to the continuum of synapse development in vivo, it is difficult to quantitatively assess synapse development. However, in order to provide at time stamp for synapse development, Example 1 is directed to a PDL-coated bead in a culture medium designed to induce synaptic formation. […] By adding the PDL-coated beads to the axonal compartment of the microfluidic compartment, it allows for the visualization of presynaptic terminal development without the overwhelming signal from somata or dendrites. Indeed, this experimental set-up allows for the subjection of distinct compartments to nutrients of interest. The method used herein is described in the reference, Taylor, A. M. et al. “A microfluidic culture platform for CNS axonal injury regeneration and transport.” Nat Methods, 2005. 2(8): p. 599-605, which is incorporated by reference. Briefly, the microfluidic chip contains four chambers, two at the left side and two at the right connected by microgrooves in the center. The cortical and hippocampal dissociated neurons from embryonic rat (E18) and mouse (E17) were seeded in the left (somal) side of the chambers with a density of approximately 3×10^6 cells/ml, yielding approximately 3,000 cells in the somal side of the chamber. The PDL-coated nanobeads were added to the right side of the chamber. In each testing condition, the culture medium contains different nutrient. The immunohistochemistry analysis was performed in order to assess the impact on synaptic development provided by the nutrients. The cultures were fixed using 4% paraformaldehyde for 30 min at room temperature. The cultures then were washed twice with phosphate-buffered saline (PBS) for 5 min, and then permeabilized using PBS with 0.2% Triton X-100 for 30 min. To block nonspecific binding, PBS with 0.2% Triton X-100 and 10% goat serum was used. The primary antibodies were exposed to PBS with 0.2% Triton X-100 and 5% goat serum at 4° C. overnight, followed by brief rinsing of the cultures 3 times for 10 min. They were then incubated them with secondary antibody (conjugated with Alexa Fluor 488 or 568) in PBS for 1 h. The images were taken and quantified by using confocal microscopy. At embryonic Day 18, rat hippocampal neurons were plated on to microfluidic devices and inositol was added to both somal and axonal compartments from second day in vitro. Cultures were exposed with different concentrations of inositol at 200 μM, 600 μM, 1200 μM, or the control 40 μM, every 3 days by completely changing the media every three days. At 9 days in vitro (9DIV) the cultures were loaded with FM dye and electrical field stimulation of somal compartments was performed on each for about one minute.

E18 hippocampal neurons = experiment: Axon growth in microfluidic devices, immunohistochemistry with β-tubulin III; assay type: cell-based; conditions: addition of 600 μM inositol vs inositol free media
From the text: Example 3 illustrates that inositol exposure increases neuronal axon growth. Generally, an axon is a long, slender projection of a neuron that conducts electrical impulses away from the neuron's cell body. Myelinated axons are generally known as nerve fibers. Axons make contact with other neurons at synapses. Therefore, the healthy status of a neural axon is fundamentally important for proper brain function. The integrity and growth of axons can be measured by immunohistochemistry with β-tubulin III. Indeed, illustrated herein, the absence of inositol causes axon growth to stop and truncate prematurely; while supplementation of inositol provides healthy growth of neuronal axons. […] The axons of hippocampal neurons lost continuity and disintegrated. […] Taken together, inositol is essential for axon development and higher concentrations of inositol benefits the extension of axons.

## O[C@H]1[C@H](O)[C@@H](O)[C@H](O)[C@@H](O)[C@H]1O [inositol]
Hippocampal neurons; 10DIV hippocampal neurons, FIGS. 2A and 2B
  synapsin 1 and bassoon clustering at the bead-axon terminals: increases synapsin 1 and bassoon clustering
Hippocampal neurons; inositol at 600 μM vs 40 μM control, FIG. 2A
  presynaptic assembly: significantly increases the presynaptic assembly
[1]
  presynaptic Bassoon puncta: increased the presynaptic Basson puncta
[2]; compared to control as well as DHA at 20 μM, FIG. 4D
  pre-synaptic puncta density (number of bassoon puncta per 10 micron dendrite): increase the pre-synaptic puncta density in a statistically significant manner
[2]; higher concentrations of inositol, compared to the control and DHA at 20 μM, FIG. 4E
  post-synaptic sites as measured by post-synaptic marker (Homer) density: enhance post-synaptic sites
[2]; increasing inositol
  overall health of neuron: promotes the overall health of neuron
[2]; increasing inositol from standard 40 μM to 200 μM
  density of pre- and post-synaptic specializations: substantially elevates the density of pre- and post-synaptic specializations
[2]; lowest tested concentrations of inositol
  effect on synapse number relative to DHA: effects comparable to DHA
[2]; supplementation from 4-14 days in vitro, FIG. 6A
  size of presynaptic sites (Bassoon puncta size): increase the size of presynaptic sites
[2]; supplementation from 4-14 days in vitro, FIG. 6B
  size of postsynaptic sites (Homer puncta size): increase the size
[2]; treatment from 4-14 days in vitro, FIG. 5
  co-localization of pre-synaptic (Bassoon) with post synaptic (Homer) sites: increased the extent to which pre-synaptic sites (as measured by Bassoon staining) co-localized with post synaptic sites
[2]; treatment from 7-14 days in vitro
  synapse number: increased synapse number
Rat hippocampal neurons; 200 μM inositol vs control wells containing 40 μM inositol
  releasing FM Dye as an indicator of neural transmitter release: significant increases in releasing FM Dye
Rat hippocampal neurons; 600 μM inositol vs control wells containing 40 μM inositol
  releasing FM Dye as an indicator of neural transmitter release: significant increases in releasing FM Dye
Rat hippocampal neurons; 600 μM inositol wells
  neural transmitter releasing, consistency of results: consistent and robust results with enhanced neural transmitter releasing
Rat hippocampal neurons; tested 200, 600, 1200 μM, dose dependent, statistically significant
  concentration at which the highest effects on FM dye releasing were observed: 600 µM
E18 hippocampal neurons
  axon growth: restore and promote the healthy growth of axons
